Test results from US7049445B2, “Bicyclic compounds” (Asahi Kasei Pharma Corporation, priority 2000, dated 2006).
Where a name gives a salt, the structure may show the parent alone.

Legend:
human β3 = target: T1, human β3 (Homo sapiens, UniProt P13945); experiment: Human β3-agonist activities (cAMP in transfected CHO cells); format: cell-based; settings: CHO cells transfected with human β3 gene; for EC50: cAMP quantitated by EIA after 30 minutes; for Emax: read-out: Intrinsic activity* (relative activities as compared with isoproterenol)
T1 construct: used as a probe to obtain the full length human β3 gene from a human genomic library; expressed in transfected cells; host or cells: CHO (Chinese hamster ovary) cells, pcDNA3 vector
T1 sequence (P13945 whole entry): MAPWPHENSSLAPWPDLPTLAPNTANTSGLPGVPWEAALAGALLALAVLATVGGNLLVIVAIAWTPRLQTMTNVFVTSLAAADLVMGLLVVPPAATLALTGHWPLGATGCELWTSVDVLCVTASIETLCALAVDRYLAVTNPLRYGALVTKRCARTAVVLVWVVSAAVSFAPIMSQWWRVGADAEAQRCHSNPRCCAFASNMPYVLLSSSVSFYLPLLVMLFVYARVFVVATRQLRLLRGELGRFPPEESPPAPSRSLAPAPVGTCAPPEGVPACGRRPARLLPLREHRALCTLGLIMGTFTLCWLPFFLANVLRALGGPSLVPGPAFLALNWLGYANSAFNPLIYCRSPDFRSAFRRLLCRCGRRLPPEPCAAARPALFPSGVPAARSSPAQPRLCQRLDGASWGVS
Experimental: Human β3-agonist activities were determined using CHO (Chinese hamster ovary) cells transfected with pcDNA3 (mfd. by Invitrogen) to which human β3 gene had been inserted. Human β3 fragment was first obtained from human adipose tissue cDNA (mfd. by Clonetech) by PCR using the primer of β3 (Krief, et al., J. Clin. Invest., vol. 91, pp. 344-349 (1993)). The human β3 fragment thus obtained was used as a probe to obtain the full length human β3 gene from a human genomic library (mfd. by Clonetech). The above cells were cultured in a Ham F-12 medium supplemented with 10% fetal bovine serum, 400 μg/mL geneticin (Gibco BRL), 100 U/mL penicillin and 100 μg/mL streptomycin. After placing these cells (5×10^5) into a 6-well plate and culturing them for 24 hours, they were allowed to stand on a serum-free Ham F-12 medium for 2 hours. The compound was first dissolved in DMSO, diluted to a concentration of 10^−6 M with Ham F-12 supplemented with 1 mM isobutylmethylxanthine and 1 mM ascorbic acid, and then added to the cells. After the cells were cultured for 30 minutes, the medium was removed, followed by addition of 0.5 mL of 1 N NaOH. The medium was allowed to stand for 20 minutes and then 0.5 mL of 1 N acetic acid was added to the medium. The medium was stirred and centrifuged, followed by quantitating cAMP with cAMP EIA kit (mfd. by Cayman). With respect to eight compounds among the compounds described in Examples, their relative activities (%) as compared with isoproterenol were indicated in Table 3. Isoproterenol was purchased from RBI (Research Biochemicals International). The results from Table 3 indicate that the compounds of the present invention have human β3-agonist activities.

[1] = test system: transgenic mouse expressing human β3; experiment: Thermogenesis in transgenic mouse expressing human β3; format: in vivo; settings: orally administered to transgenic mice, 3 to 10 mg/kg
Text: Ito, et al. prepared a replacement mouse expressing human β3 in its brown fat by introducing human β3 gene into a mouse whose mouse β3 gene had been knocked out (Ito, et al., Diabetes, vol. 47, pp. 1464-1471 (1998)). A compound of the present invention can be tested for antiobestic activity and antidiabetic activity using a transgenic mouse according to the following procedures.
The thermogenesis can be measured with OXYMAX System (Columbus) according to the method reported by Largis et al. (Drug Development Research, vol. 32, pp. 69-76 (1994)). According to this device, the amount of thermogenesis can be obtained by calculating the calories based on the amount of oxygen consumed and the amount of carbon dioxide generated. After the administration of a medicinal substance, the measurements are carried out for 120 minutes (15 points). The average of the measured values obtained for the latter […] (10 points) is converted into a value per body weight to give the amount of thermogenesis. When a test by repetitive administrations is carried out, a medicinal substance may be administered at a dose once daily, twice daily or the like. The duration of administration may be 1 week, 2 weeks or more. In a test by repetitive administrations, body weight, blood glucose level and insulin level can be monitored with the passage of time as the method of Largis et al. (Drug Development Research, vol. 32, pp. 69-76 (1994). It is also possible that after the completion of the administration, the animal is anatomized to measure the weight of fat tissue or to prepare a section followed by a microscopic examination. Further, the expression level of UCP-1 can be examined according to the method reported by Nagase et al. (J. Clin. Invest., vol. 97, pp. 2898-2904 (1996)).
The present compounds were orally administered to transgenic mice in an amount of from 3 to 10 mg/kg to measure their thermogenesis.

male ddy mice = experiment: Toxicity test; format: in vivo; settings: orally administered to 6-week old male ddy mice at 100 mg/kg
[2] = cAMP, relative to isoproterenol

| EC50 (human β3) [nM] | Emax (human β3; [2]) [%] | Compound | Increase of thermogenesis as compared with the control group [1] [%] | Mortality (male ddy mice) | Intrinsic activity* (relative activities as compared with isoproterenol) (human β3; [2]) [%] |
| --- | --- | --- | --- | --- | --- |
| 14 | 96 | Cc1c(-c2ccccc2)[nH]c2cc(OCCNC[C@H](O)c3cccc(NS(C)(=O)=O)c3)ccc12.Cl [Example 13, (R)-N-[3-[2-[2-(3-methyl-2-phenyl-1H-indol-6-yloxy)ethylamino]-1-hydroxyethyl]phenyl]methanesulfonamide hydrochloride] | 15 | – | – |
| 4.8 | 80 | Cc1[nH]c2cc(OCCNC[C@H](O)c3cccc(NS(C)(=O)=O)c3)ccc2c1C.Cl [Example 11, (R)-N-[3-[2-[2-(2,3-dimethyl-1H-indol-6-yloxy)ethylamino]-1-hydroxyethyl]phenyl]methanesulfonamide hydrochloride] | 17 | – | – |
| 4.4 | 94 | Cc1c(-c2ccccc2)[nH]c2cc(OCCNC[C@H](O)c3ccc(Cl)c(NS(C)(=O)=O)c3)ccc12 [Example 17, (R)-N-[5-[2-[2-(3-methyl-2-phenyl-1H-indol-6-yloxy)ethylamino]-1-hydroxyethyl]-2-chlorophenyl]methanesulfonamide hydrochloride] | – | – | – |
| 5.3 | 71 | CNS(=O)(=O)c1cc([C@@H](O)CNCCOc2ccc3c(C)c(C)[nH]c3c2)ccc1O [Example 12, N-methyl-(R)-[5-[2-[2-(2,3-dimethyl-1H-indol-6-yloxy)ethylamino]-1-hydroxyethyl]-2-hydroxy]benzenesulfonamide hydrochloride] | – | – | – |

Further lines, the compound ahead of its results:

| Compound | EC50 (human β3) [nM] | Emax (human β3; [2]) [%] | Increase of thermogenesis as compared with the control group [1] [%] | Mortality (male ddy mice) | Intrinsic activity* (relative activities as compared with isoproterenol) (human β3; [2]) [%] |
| --- | --- | --- | --- | --- | --- |
| Cc1[nH]c2cc(OCCNC[C@H](O)c3ccc(Cl)c(NS(C)(=O)=O)c3)ccc2c1C.Cl [Example 10, (R)-N-[5-[2-[2-(2,3-dimethyl-1H-indol-6-yloxy)ethylamino]-1-hydroxyethyl]-2-chlorophenyl]methanesulfonamide hydrochloride] | 4.5 | 78 | 15 | none of eight animals were found to be dead | – |
| Cc1[nH]c2cc(OCCNCC(O)c3ccc(Cl)c(NS(C)(=O)=O)c3)ccc2c1C (stereo not shown) [Example 4, N-[5-[2-[2-(2,3-dimethyl-1H-indol-6-yloxy)ethylamino]-1-hydroxyethyl]-2-chlorophenyl]methanesulfonamide trifluoroacetate] | 10 | 73 | – | – | – |
| Cc1[nH]c2cc(OCCNCC(O)c3cccc(NS(C)(=O)=O)c3)ccc2c1C.O=C(O)C(F)(F)F (stereo not shown) [Example 3, N-[3-[2-[2-(2,3-dimethyl-1H-indol-6-yloxy)ethylamino]-1-hydroxyethyl]phenyl]methanesulfonamide trifluoroacetate] | 8.7 | 100 | – | none of eight animals were found to be dead | – |
| CNS(=O)(=O)c1cc(C(O)CNCCOc2ccc3c(C)c(C)[nH]c3c2)ccc1O.O=C(O)C(F)(F)F (stereo not shown) [Example 9, N-methyl-[5-[2-[2-(2,3-dimethyl-1H-indol-6-yloxy)ethylamino]-1-hydroxyethyl]-2-hydroxy]benzenesulfonamide trifluoroacetate] | 16 | – | – | none of eight animals were found to be dead | 62 |
